# From US9556109B1, “Triscationic amphiphile derivative compounds having a pendent alcohol group, compositions thereof, and methods for making same” (James Madison Innovations, Inc., priority 2015, dated 2017)
# Key:
# [1] = test system: E. faecalis (G+); test: Minimum inhibitory concentration (MIC), E. faecalis; assay type: cell-based, Enterococcus faecalis; details: Experiment 2, Table 3
# [2] = test system: P. aeruginosa (G−); test: Minimum inhibitory concentration (MIC), P. aeruginosa; assay type: cell-based, Pseudomonas aeruginosa
# [3] = test system: S. aureus (G+); test: Minimum inhibitory concentration (MIC), S. aureus; assay type: cell-based, Staphylococcus aureus
# [4] = test system: Pa1 (G−); test: Minimum inhibitory concentration (MIC), Pa1; details: Experiment 1, Table 2
# [5] = Isothermal titration calorimetry: critical aggregation concentration and degree of ionization; assay type: physicochemical; details: 37° C.; for CAC: ITC, pure water
# Protocol: Isothermal titration calorimetry (ITC) was used to determine the critical aggregation concentration (CAC) and the degree of ionization at 37° C. associated with aggregate formation for each amphiphile for the M-E series, as shown in Table 1.
# A Nano ITC was used to measure the heat change associated with the deaggregation of amphiphiles via power compensation. A concentrated aqueous solution of amphiphile (>>CAC) was titrated into a thermally controlled sample cell, initially containing pure water, in a series of discrete injections. Isothermal titration calorimetry was used to determine the critical aggregation concentration (CAC).
# CAC and ΔHagg were determined using a Nano-ITC (TA-Instruments). Prior to each experiment the sample cell was washed with dH2O (300 mL), ethanol (100 mL), dH2O (300 mL) and nanopure water (200 mL). Next, 950 μL of nanopure water was added to the sample cell. A concentrated aqueous solution (>>CAC) of amphiphile was prepared and equilibrated at 37° C. A 250 μL syringe was filled with the aqueous solution, and loaded into the Nano ITC. Multiple single injections in aliquots of 5 μL were injected into the sample cell with time intervals varying from 300 s to 1400 s. Samples were continuously stirred (300 rpm) throughout the titration. The Nano-Analyze program (TA-Instruments) was used to analyze the data. CAC and ΔHagg values reported are the average of two or more repeat experiments for each amphiphile.
# [6] = test system: B. anthracis (G+); assay type: cell-based; details: Experiment 2, Table 3
# [7] = test system: S. agalactiae (G+); test: Minimum inhibitory concentration (MIC), S. agalactiae; assay type: cell-based, Streptococcus agalactiae; details: Experiment 2, Table 3
# [8] = test system: E. coli (G−); test: Minimum inhibitory concentration (MIC), E. coli; assay type: cell-based, Escherichia coli
# [9] = test system: Pa2 (G−); test: Minimum inhibitory concentration (MIC), Pa2; details: Experiment 1, Table 2
# [10] = test system: B. subtilis (G+); assay type: cell-based; details: Experiment 2, Table 3
# [11] = test system: Gram-negative bacteria; test: MIC, summary for Gram-negative bacteria; assay type: cell-based; details: text summary over tested strains
# [12] = test system: Pseudomonas aeruginosa biofilm; test: Crystal Violet Biofilm Disruption Assay; assay type: cell-based; details: for Max % disruption: over 250-2 μM
# Protocol: A Crystal Violet Biofilm Disruption Assay was adapted from the techniques described in Bendouah, et al. 2006, Biofilm formation by Staphylococcus aureus and Pseudomonas aeruginosa is associated with an unfavorable evolution after surgery for chronic sinusitis and nasal polyposis, Otolaryngol. […] Bacteriol. 193 (20):5616-22. doi: 10.1128/JB.05534-11, which are incorporated by reference in their entirety. Applicants' adapted assay was performed as follows: • 1. Bacterial growth: […] (120 RPM in shaking incubator) for 24 hours • 2. Working stock: Overnight liquid culture diluted down to a bacterial concentration of approximately 5×10^6 CFU/mL in fresh LB • 3. Plate inoculation: Sterile 96-well microtiter plate inoculated with working stock: […] Plate covered with plastic cover, parafilm wrapped around edges; Incubate 24 hours at 37 degrees C. (stationary incubator) to establish biofilm • 4. Treatment: Row A and B: 100 μL sterile PBS (blank and negative control for disruption, respectively); […] Plate covered, wrapped with fresh parafilm, incubated at 37 degrees C. for 24 hours • 5. Staining and quantification: Plate rinsed twice with 1×PBS and allowed to dry; Wells stained with 100 μL 0.1% Crystal Violet dye for 15 minutes, excess rinsed off with gentle running dI water, allowed to dry; Stain dissolved in 100 μL 95% ethanol per well for 1 hour; Ethanol/CV solution transferred to fresh 96-well plate; Plate read at 570 nm on spectrophotometer plate reader; Values for rows C-H compared to row B (neg. control for disruption) to obtain % biofilm disruption at each concentration.
# [13] = test system: Gram-positive bacteria; test: MIC, summary for Gram-positive bacteria; assay type: cell-based; details: text summary over tested strains
# [14] = test system: P. aeruginosa (G−); details: comparison values of known antibiotics; cited from earlier work
compound,measurement,setting,value
CCCCCCCCCCCCCCCC[N+](C)(C)Cc1cc(C[N+](C)(C)CCO)cc(C[N+](C)(C)CCCCCCCCCCCCCCCC)c1.[Br-].[Br-].[Br-] [Compound 5],MIC E. faecalis (G+),[1],63 µM
same,MIC P. aeruginosa (G−),"[2]; Experiment 1, Table 2",125 µM
same,MIC P. aeruginosa (G−),"[2]; Experiment 2, Table 3",125 µM
same,MIC S. aureus (G+),"[3]; Experiment 1, Table 2",63 µM
same,MIC S. aureus (G+),"[3]; Experiment 2, Table 3",63 µM
same,MIC Pa1 (G−),[4],>250 µM
same,Degree of Ionization,[5],0.15
same,CAC,[5],0.12 mM
same,MIC B. anthracis (G+),[6],>250 µM
same,MIC S. agalactiae (G+),[7],>250 µM
same,MIC E. coli (G−),"[8]; Experiment 1, Table 2",63 µM
same,MIC E. coli (G−),"[8]; Experiment 2, Table 3",63 µM
same,MIC Pa2 (G−),[9],>250 µM
same,MIC B. subtilis (G+),[10],>250 µM
CCCCCCCCCCCC[N+](C)(C)Cc1cc(C[N+](C)(C)CCO)cc(C[N+](C)(C)CCCCCCCCCCCC)c1.[Br-].[Br-].[Br-] [Compound 3],MIC E. faecalis (G+),[1],2 µM
same,MIC P. aeruginosa (G−),"[2]; Experiment 1, Table 2",8 µM
same,MIC P. aeruginosa (G−),"[2]; Experiment 2, Table 3",8 µM
same,MIC S. aureus (G+),"[3]; Experiment 1, Table 2",4 µM
same,MIC S. aureus (G+),"[3]; Experiment 2, Table 3",4 µM
same,MIC Pa1 (G−),[4],8 µM
same,MIC for Gram-negative bacteria,[11],4 to 8 µM
same,Degree of Ionization,[5],0.20
same,CAC,[5],1.9 mM
same,MIC B. anthracis (G+),[6],2 µM
same,MIC S. agalactiae (G+),[7],2 µM
same,Min conc. >50% disruption,[12],63 µM
same,% disruption average,[12]; 2 μM,0%
same,% disruption trial 1,[12]; 2 μM,0%
same,% disruption trial 2,[12]; 2 μM,0%
same,% disruption average,[12]; 4 μM,5.12%
same,% disruption trial 1,[12]; 4 μM,1.759%
same,% disruption trial 2,[12]; 4 μM,8.481%
same,% disruption average,[12]; 8 μM,13.44%
same,% disruption trial 1,[12]; 8 μM,24.06%
same,% disruption trial 2,[12]; 8 μM,2.817%
same,% disruption average,[12]; 16 μM,30.79%
same,% disruption trial 1,[12]; 16 μM,47.34%
same,% disruption trial 2,[12]; 16 μM,14.23%
same,% disruption average,[12]; 31 μM,46.0133%
same,% disruption trial 1,[12]; 31 μM,61.1%
same,% disruption trial 2,[12]; 31 μM,30.93%
same,% disruption average,[12]; 63 μM,68.14%
same,% disruption trial 1,[12]; 63 μM,72.05%
same,% disruption trial 2,[12]; 63 μM,64.22%
same,% disruption average,[12]; 125 μM,65.66%
same,% disruption trial 1,[12]; 125 μM,65.04%
same,% disruption trial 2,[12]; 125 μM,66.29%
same,% disruption average,[12]; 250 μM,66.48%
same,% disruption trial 1,[12]; 250 μM,67.34%
same,% disruption trial 2,[12]; 250 μM,65.61%
same,Max % disruption,[12],68%
same,MIC E. coli (G−),"[8]; Experiment 1, Table 2",4 µM
same,MIC E. coli (G−),"[8]; Experiment 2, Table 3",4 µM
same,MIC Pa2 (G−),[9],8 µM
same,MIC B. subtilis (G+),[10],4 µM
same,MIC for Gram-positive bacteria,[13],4 µM
CCCCCCCCCC[N+](C)(C)Cc1cc(C[N+](C)(C)CCO)cc(C[N+](C)(C)CCCCCCCCCC)c1.[Br-].[Br-].[Br-] [Compound 2],MIC E. faecalis (G+),[1],4 µM
same,MIC P. aeruginosa (G−),"[2]; Experiment 2, Table 3",250 µM
same,MIC S. aureus (G+),"[3]; Experiment 2, Table 3",125 µM
same,Degree of Ionization,[5],0.24
same,CAC,[5],9.5 mM
same,MIC B. anthracis (G+),[6],4 µM
same,MIC S. agalactiae (G+),[7],4 µM
same,MIC E. coli (G−),"[8]; Experiment 2, Table 3",125 µM
same,MIC B. subtilis (G+),[10],16 µM
CCCCCCCC[N+](C)(C)Cc1cc(C[N+](C)(C)CCO)cc(C[N+](C)(C)CCCCCCCC)c1.[Br-].[Br-].[Br-] [Compound 1],MIC E. faecalis (G+),[1],63 µM
same,MIC P. aeruginosa (G−),"[2]; Experiment 2, Table 3",>250 µM
same,MIC S. aureus (G+),"[3]; Experiment 2, Table 3",250 µM
same,MIC B. anthracis (G+),[6],63 µM
same,MIC S. agalactiae (G+),[7],125 µM
same,MIC E. coli (G−),"[8]; Experiment 2, Table 3",>250 µM
same,MIC B. subtilis (G+),[10],250 µM
"NC[C@H]1O[C@H](O[C@H]2[C@H](O)[C@@H](O[C@H]3O[C@H](CO)[C@@H](O)[C@H](N)[C@H]3O)[C@H](N)C[C@@H]2N)[C@H](N)C[C@@H]1O [Tobramycin, reference compound]",MIC against P. aeruginosa,[14],6.4 µM
same,Min conc. >50% disruption,[12],31 µM
same,% disruption average,[12]; 2 μM,6.808%
same,% disruption trial 1,[12]; 2 μM,0%
same,% disruption trial 2,[12]; 2 μM,13.62%
same,% disruption average,[12]; 4 μM,27.66%
same,% disruption trial 1,[12]; 4 μM,0%
same,% disruption trial 2,[12]; 4 μM,55.3151%
same,% disruption average,[12]; 8 μM,32.13%
same,% disruption trial 1,[12]; 8 μM,15.46%
same,% disruption trial 2,[12]; 8 μM,48.79%
same,% disruption average,[12]; 16 μM,13.9806%
same,% disruption trial 1,[12]; 16 μM,0%
same,% disruption trial 2,[12]; 16 μM,27.9612%
same,% disruption average,[12]; 31 μM,61.0098%
same,% disruption trial 1,[12]; 31 μM,51.89%
same,% disruption trial 2,[12]; 31 μM,70.13%
same,% disruption average,[12]; 63 μM,60.79%
same,% disruption trial 1,[12]; 63 μM,53.5149%
same,% disruption trial 2,[12]; 63 μM,68.07%
same,% disruption average,[12]; 125 μM,43.07%
same,% disruption trial 1,[12]; 125 μM,34.88%
same,% disruption trial 2,[12]; 125 μM,51.26%
same,% disruption average,[12]; 250 μM,3.803%
same,% disruption trial 1,[12]; 250 μM,0%
same,% disruption trial 2,[12]; 250 μM,7.607%
same,Max % disruption,[12],61%
CO/N=C(\C(=O)N[C@@H]1C(=O)N2C(C(=O)[O-])=C(C[N+]3(C)CCCC3)CS[C@H]12)c1csc(N)n1 [cefepime],MIC against P. aeruginosa,[14],12.5 µM
CCCCCCCCCCCCCC[N+](C)(C)Cc1cc(C[N+](C)(C)CCO)cc(C[N+](C)(C)CCCCCCCCCCCCCC)c1.[Br-].[Br-].[Br-] [Compound 4],MIC E. faecalis (G+),[1],4 µM
same,MIC P. aeruginosa (G−),"[2]; Experiment 1, Table 2",125 µM
same,MIC P. aeruginosa (G−),"[2]; Experiment 2, Table 3",125 µM
same,MIC S. aureus (G+),"[3]; Experiment 1, Table 2",8 µM
same,MIC S. aureus (G+),"[3]; Experiment 2, Table 3",8 µM
same,MIC Pa1 (G−),[4],250 µM
same,Degree of Ionization,[5],0.18
same,CAC,[5],0.47 mM
same,MIC B. anthracis (G+),[6],8 µM
same,MIC S. agalactiae (G+),[7],4 µM
same,MIC E. coli (G−),"[8]; Experiment 1, Table 2",8 µM
same,MIC E. coli (G−),"[8]; Experiment 2, Table 3",8 µM
same,MIC Pa2 (G−),[9],250 µM
same,MIC B. subtilis (G+),[10],8 µM
